Laboratory results reported in publication PMC9860980, “Pharmacokinetics and Pharmacodynamics (PK/PD) of Corallopyronin A against Methicillin-Resistant Staphylococcus aureus” (Pharmaceutics, 2022).
Like-named read-outs stand apart in the source and are kept apart here.

Assays:
[1] = Biodistribution of CorA to organs/tissues of CD-1 mice (LC-MS/MS); format: in vivo
Procedure: (§1) For pharmacokinetic (PK) experiments, 6–8-week-old outbred female CD-1 mice (Charles River, Germany) were used. CorA was dissolved in PEG400/phosphate-buffered saline (PBS) (80:20 (v/v)). CorA was administered once daily at 60 mg/kg intraperitoneally (IP), 100 mg/kg IP, 100 mg/kg subcutaneously (SC) and 100 mg/kg perorally (PO). Moreover, CorA was administered at 30 mg/kg IP twice a day (BID) (administration time points t = 0 and 6 h after first dose). Animals (n = 3 per time point) receiving either 60 mg/kg IP or 100 mg/kg IP were euthanized at 10, 15, 30, 60 and 180 min after administration. Animals (n = 3 per time point) receiving 30 mg/kg IP BID were euthanized at 0.167, 0.25, 0.5, 1, 3, 5.75, 6.167, 6.25, 6.5, 7 and 9 h after first administration. Animals (n = 3 per time point) receiving 100 mg/kg SC or 100 mg/kg PO were euthanized at 0.25, 1, 2, 4 and 8 h after administration. At every time point blood was removed from the heart, collected into tubes coated with 0.5 M ethylenediaminetetraacetic acid (EDTA), immediately spun down at 15,870× g for 10 min at 4 °C and the resultant plasma transferred into a new tube. Furthermore, at every time point heart, lung, brain, liver, spleen, kidneys, and thigh muscles were removed and frozen in liquid nitrogen. For animals receiving 100 mg/kg PO also rectum (without feces), pharynx, skin, vaginal tract, subcutaneous fat tissue, visceral fat tissue and tibiae were removed and frozen in liquid nitrogen. Before removing the vaginal tract, a vaginal flush was performed.
(§2) Caffeine was used as an internal standard.

MRSA = conditions: against MRSA; cited from earlier work
[2] = Pharmacokinetics of CorA in plasma of CD-1 mice; format: in vivo; conditions: for Tmax / CL/F / Cmax / MRT / half-life / Vd/F / AUC0-t: CD-1 mice; for Vd/F: read-out: Vz/F_obs
Procedure: as §1
CorA plasma concentrations were quantified by HPLC-DAD with an Alliance e2695 separation module and a 2998 PDA detector (Waters, Eschborn, Germany). For the analysis, blood samples were centrifuged for 10 min at 4 °C and 3220× g. The generated plasma (20 µL) was mixed 1:3 with ice-cold acetonitrile, vortexed for 10 s and centrifuged for 25 min at 4 °C and 11,000× g. The supernatant was transferred into a HPLC vial and a sample volume of 5 µL was injected and quantified at a wavelength of 300 nm. A Waters XBridge® Shield RP18 column (3.5 μm, 2.1 × 100 mm, 130 A) was used at 30 °C. Two solvent gradients comprising mobile phase A (acetonitrile/water 5/95 with 5 mM ammonium acetate and 40 μL acetic acid per liter) and mobile phase B (acetonitrile/water 95/5 with 5 mM ammonium acetate and 40 μL acetic acid per liter) with a gradient from 70%A/30%B to 20%A/80%B, stepwise within 30 min and a flow rate of 0.3 mL/min were used. Data were analyzed by Empower 3 software and quantified using an external reference standard. No major matrix effects were seen when mixing ACN containing CorA with plasma.
as §2

[3] = female, mouse, plasma, 30 mg/kg IP (BID), mean ± SD
[4] = female, mouse, plasma, 60 mg/kg IP, mean ± SD
[5] = female, mouse, plasma, 100 mg/kg IP, mean ± SD
[6] = female, mouse, plasma, 100 mg/kg PO

In the case of C/C=C/C/C=C(\C)C(O)CC/C(C)=C/C=C(\C)C(=O)c1c(O)cc([C@H](C)CC/C=C/NC(=O)OC)oc1=O (some centres unmarked) [CorA, Corallopyronin A], the “CorA in vaginal flush” value ([1]; 100 mg/kg PO) is reported as “not found”, the “time initial peak concentrations in tissue are above the MIC” value ([1]; IP dosing) is reported as 2 to 3 h and the AUC ([1]; brain, 30 mg/kg IP) is reported as 0.05 µg·h/g. The AUC ([1]; brain, 60 mg/kg IP) was 0.10 µg·h/g, the AUC ([1]; brain, 100 mg/kg IP) was 0.10 µg·h/g and the AUC ([1]; brain, 100 mg/kg SC) was 0.24 µg·h/g. The “time tissue concentration exceeds the in vitro MIC against MRSA” value ([1]; female, CD-1, mouse, in vivo, sc, 100 mg/kg) was “more than 9 h”, the Cmax ([1]; female, CD-1, mouse, thigh muscle, thigh, 30 mg/kg IP) was 100 ng/g and the Cmax ([1]; female, CD-1, mouse, thigh muscle, thigh, 60 mg/kg IP) was 300 ng/g. It also gave a Cmax ([1]; female, CD-1, mouse, thigh muscle, thigh, 100 mg/kg IP) of 700 ng/g, a Tmax ([1]; female, CD-1, mouse, 100 mg/kg PO, thigh, heart, kidney, spleen, lung, liver, fat, rectum, pharynx, vaginal tract, skin, tibia, read-out: time of peak concentration in the investigated tissues) of 0.25 to 0.5 h and a Cmax ([1]; female, CD-1, mouse, brain, 30 mg/kg IP) of 40 ng/g. It also gave a Cmax ([1]; female, CD-1, mouse, brain, 60 mg/kg IP) of 70 ng/g, a Cmax ([1]; female, CD-1, mouse, brain, 100 mg/kg IP) of 100 ng/g and a Cmax ([1]; female, CD-1, mouse, brain, 100 mg/kg SC) of 150 ng/g. For the same molecule, the Cmax ([1]; female, CD-1, mouse, heart, 30 mg/kg IP) was 1100 ng/g, the Cmax ([1]; female, CD-1, mouse, heart, 60 mg/kg IP) was 1800 ng/g and the Cmax ([1]; female, CD-1, mouse, heart, 100 mg/kg IP) was 3100 ng/g. For the same molecule, the Cmax ([1]; female, CD-1, mouse, heart, 100 mg/kg SC) was 1480 ng/g, the Cmax ([1]; female, CD-1, mouse, kidney, 30 mg/kg IP) was 700 ng/g and the Cmax ([1]; female, CD-1, mouse, kidney, 60 mg/kg IP) was 1200 ng/g. It also gave a Cmax ([1]; female, CD-1, mouse, kidney, 100 mg/kg IP) of 1800 ng/g, a Cmax ([1]; female, CD-1, mouse, kidney, 100 mg/kg SC) of 1760 ng/g and a Cmax ([1]; female, CD-1, mouse, liver, 30 mg/kg IP) of 310 ng/g. For the same molecule, the Cmax ([1]; female, CD-1, mouse, liver, 60 mg/kg IP) was 430 ng/g, the Cmax ([1]; female, CD-1, mouse, liver, 100 mg/kg IP) was 610 ng/g and the Cmax ([1]; female, CD-1, mouse, liver, 100 mg/kg SC) was 2300 ng/g. The Cmax ([1]; female, CD-1, mouse, lung, 30 mg/kg IP) was 1500 ng/g, the Cmax ([1]; female, CD-1, mouse, lung, 60 mg/kg IP) was 3100 ng/g and the Cmax ([1]; female, CD-1, mouse, lung, 100 mg/kg IP) was 4800 ng/g. For the same molecule, the Cmax ([1]; female, CD-1, mouse, lung, 100 mg/kg SC) was 1270 ng/g, the Cmax ([1]; female, CD-1, mouse, spleen, 30 mg/kg IP) was 1400 ng/g and the Cmax ([1]; female, CD-1, mouse, spleen, 60 mg/kg IP) was 2100 ng/g. The Cmax ([1]; female, CD-1, mouse, spleen, 100 mg/kg IP) was 4900 ng/g, the Cmax ([1]; female, CD-1, mouse, spleen, 100 mg/kg SC) was 600 ng/g and the AUC ([1]; heart, 30 mg/kg IP) was 1.08 µg·h/g. For the same molecule, the AUC ([1]; heart, 60 mg/kg IP) was 1.83 µg·h/g, the AUC ([1]; heart, 100 mg/kg IP) was 2.10 µg·h/g and the AUC ([1]; heart, 100 mg/kg SC) was 3.53 µg·h/g. For the same molecule, the AUC ([1]; kidney, 30 mg/kg IP) was 0.49 µg·h/g, the AUC ([1]; kidney, 60 mg/kg IP) was 0.95 µg·h/g and the AUC ([1]; kidney, 100 mg/kg IP) was 1.01 µg·h/g. It also gave an AUC ([1]; kidney, 100 mg/kg SC) of 5.61 µg·h/g, an AUC ([1]; liver, 30 mg/kg IP) of 0.40 µg·h/g and an AUC ([1]; liver, 60 mg/kg IP) of 0.57 µg·h/g. For the same molecule, the AUC ([1]; liver, 100 mg/kg IP) was 0.59 µg·h/g, the AUC ([1]; liver, 100 mg/kg SC) was 12.44 µg·h/g and the AUC ([1]; lung, 30 mg/kg IP) was 1.2 µg·h/g. It also gave an AUC ([1]; lung, 60 mg/kg IP) of 3.56 µg·h/g, an AUC ([1]; lung, 100 mg/kg IP) of 2.67 µg·h/g and an AUC ([1]; lung, 100 mg/kg SC) of 3.85 µg·h/g. For the same molecule, the “time CorA levels above the MIC” value ([1]; lung, 100 mg/kg SC) was ~ 4 h, the “time CorA levels exceed the in vitro MIC” value ([1]; lung, all three doses administered IP (30, 60, 100 mg/kg)) was “around 3 h” and the AUC ([1]; spleen, 30 mg/kg IP) was 0.77 µg·h/g. It also gave an AUC ([1]; spleen, 60 mg/kg IP) of 1.34 µg·h/g, an AUC ([1]; spleen, 100 mg/kg IP) of 2.55 µg·h/g and an AUC ([1]; spleen, 100 mg/kg SC) of 1.4 µg·h/g. For the same molecule, the AUC ([1]; thigh, 30 mg/kg IP) was 0.19 µg·h/g, the “time CorA levels exceed the MIC” value ([1]; thigh, 30 mg/kg IP) was “about one hour” and the AUC ([1]; thigh, 60 mg/kg IP) was 0.49 µg·h/g. The “time CorA levels above the MIC” value ([1]; thigh, 60 mg/kg IP) was “around 3 h”, the AUC ([1]; thigh, 100 mg/kg IP) was 0.60 µg·h/g and the “time CorA levels above the MIC” value ([1]; thigh, 100 mg/kg IP) was “around 3 h”. For the same molecule, the “peak concentrations in thigh above the in vitro determined MIC” value ([1]; thigh, 100 mg/kg IP, MIC 0.125 µg/mL) was 3–5 ×, the “CorA levels in thigh tissue” value ([1]; thigh, 100 mg/kg SC) was “no CorA levels were detected” and the “in vitro minimal inhibitory concentration (MIC)” value (MRSA) was 0.125 µg/mL. For the same molecule, the “time CorA was found in plasma after dosing” value ([2]; 100 mg/kg PO) was “up to 8 h”, the “exposure in plasma lower compared to the same dose administered IP or SC” value ([2]; 100 mg/kg PO vs 100 mg/kg IP or SC) was 3- to 4 fold and the Tmax ([2]; female, CD-1, mouse, plasma, ip, 30 mg/kg, 30 mg/kg IP (BID), mean ± SD) was 0.19 h. The Tmax ([2]; female, CD-1, mouse, plasma, ip, 60 mg/kg, 60 mg/kg IP, mean ± SD) was 0.19 h, the Tmax ([2]; female, CD-1, mouse, plasma, ip, 100 mg/kg, 100 mg/kg IP, mean ± SD) was 0.19 h and the Tmax ([2]; female, CD-1, mouse, plasma, po, 100 mg/kg, 100 mg/kg PO) was 0.5 ± 0.4 h. For the same molecule, the Tmax ([2]; female, CD-1, mouse, plasma, sc, 100 mg/kg, 100 mg/kg SC, mean ± SD) was 3.33 ± 1.2 h, the concentration at 8 h ([2]; female, CD-1, mouse, plasma, subcutaneous, 100 mg/kg SC, 8 h after dosing) was > 10 µg/mL and the CL/F [2, 3] was 0.89 mL/min/kg. It also gave a Cmax [2, 3] of 194 ± 15.6 µg/mL, an MRT [2, 3] of 3.61 ± 0.6 h and a half-life [2, 3] of 2.33 ± 0.3 h. It also gave a Vd/F [2, 3] of 0.18 L/kg, a CL/F [2, 4] of 1.8 mL/min/kg and a Cmax [2, 4] of 416 ± 39.1 µg/mL. The MRT [2, 4] was 1.55 ± 0.2 h, the half-life [2, 4] was 1.1 ± 0.2 h and the Vd/F [2, 4] was 0.17 L/kg. For the same molecule, the CL/F [2, 5] was 3.43 ± 0.4 mL/min/kg, the Cmax [2, 5] was 349 ± 12.4 µg/mL and the MRT [2, 5] was 2.51 ± 1 h. It also gave a half-life [2, 5] of 1.87 ± 0.8 h, a Vd/F [2, 5] of 0.54 ± 0.2 L/kg and a CL/F [2, 6] of 16.4 ± 4 mL/min/kg. The Cmax [2, 6] was 89.8 ± 43.8 µg/mL, the MRT [2, 6] was 3.13 ± 0.2 h and the half-life [2, 6] was 2.88 ± 0.6 h. For the same molecule, the AUC0-t ([2]; female, mouse, plasma, 100 mg/kg PO, read-out: AUC 0-t) was 94 ± 27.1 µg·h/mL, the Vd/F [2, 6] was 4.09 ± 1.3 L/kg and the Cmax ([2]; female, mouse, plasma, 100 mg/kg SC, mean ± SD) was 107 ± 59.2 µg/mL. It also gave an AUC0-t ([2]; plasma, 30 mg/kg IP (BID), mean ± SD) of 303.88 ± 21.9 µg·h/mL, an AUC0-t ([2]; plasma, 60 mg/kg IP, mean ± SD) of 463.87 ± 18.8 µg·h/mL and an AUC0-t ([2]; plasma, 100 mg/kg IP, mean ± SD) of 339.53 ± 28.4 µg·h/mL. For the same molecule, the “Cmax lower compared to the same dose administered IP” value ([2]; plasma, 100 mg/kg PO vs 100 mg/kg IP) was 3- to 4 fold and the AUC0-t ([2]; plasma, 100 mg/kg SC, mean ± SD) was 459.32 ± 238.2 µg·h/mL.
